Assay results taken from US10662225B2, “Backbone cyclized inhibitory peptides of myeloid differentiation factor 88 (MyD88)” (Yissum Research Development Company of the Hebrew …, priority 2016, dated 2020).
Entries after “also recorded” stand apart in the source; their conditions may differ. Numbered stars: 1 amine (or outer) side, 2 acyl side, 3 side chain; on linkers, the order of the positions; unused ones are H or OH. Bridge positions count the residues as written; N and C are the ends. Square brackets hold non-standard residues; d marks the D form. Peptide text beside a SMILES is read from it. CO = O=C([*:1])[*:2]; Nlys = NCCCCNCC(=O)O

Columns and labels:
[1] = test system: MyD88-dependent signaling; test: TNFα production by THP-1 derived macrophages stimulated with PAM3csk; type: cell-based, human; details: THP-1 macrophages, PAM3csk overnight
Protocol: FIG. 5. Human monocytic THP-1 cells were differentiated to macrophages and were stimulated with PAM3csk overnight in the absence or presence of the cyclic 4-carbon bridge peptide or 6-carbon bridge peptide. TNFα levels in the supernatants were determined by ELISA.
Both cyclic peptides were synthesized with the addition of a tryptophan group to the N-terminus to enable accurate quantification of the molecules.

[2] = test system: MyD88-dependent signaling; test: Library screen: TNFα production by U937 macrophage cells stimulated with PAM3Csk; type: cell-based, human; details: PAM3Csk overnight, peptide concentration estimated 2-4 μM
Protocol: FIG. 4. Screening results of the peptide library of 16 compounds. Human macrophage U937 cells were stimulated with PAM3csk overnight in the absence or presence of each of the cyclic peptides. Human TNFα levels in the supernatants were determined by ELISA. […].
The backbone cyclic library of 16 compounds synthesized in Example 3 was screened for inhibition of MyD88-dependent signaling through innate immune receptors employing the human macrophage cell line U937. […] The concentration of the cyclic peptides in the library was estimated to be 2-4 μM.

MOG35-55/CFA induced EAE = MOG35-55/CFA induced EAE model of multiple sclerosis; type: in vivo, mice
Protocol: FIG. 2. MIP treatment reduces severity of EAE. Mice were immunized with MOG35-55/CFA with PTX administration at day 0 and at 48 h. Groups of mice were treated with MIP (SEQ ID NO: 1, squares) or PBS (triangles) and mean clinical score was calculated.
FIG. 8. 4×4MyDI lowers disease in mouse EAE model. Mice were immunized with MOG35-55/CFA with PTX administration at day 0 and at 48 h. Groups of mice were treated with 4×4MyDI (squares, n=7) or PBS as control (circles, n=4) from day 0, three times a week.
FIG. 15. 4×4MyDI reduces severity of EAE. C57BL/6 mice were immunized with MOG35-55/CFA and administered pertussis toxin on day zero and after 48 h. Groups of mice were treated with 4×4MyDI at 4 mg/kg from day zero, three times a week, for a total of 9 treatments (squares, n=7) or an identical volume of PBS as control, using the same schedule of administration (circles, n=7). […] Clinical disease was scored daily. ***P<0.0001, 2-way ANOVA.
Effective peptides are examined for treatment of mice with EAE (the animal model of MS) applying several disease models. One model is described in Owens T. and Sriram S. Neurologic Clinics (1995) 13(1):51-73. In this model, C57B1 mice are immunized with the MOG protein in adjuvant and the onset of paralysis which appears 10-14 days following the induction, is evaluated daily. Two groups of animals are treated with two doses of the peptide administered orally by cannula on a daily basis, from the day of EAE-induction. One month after the disease onset, the animals are sacrificed and their brains and spinal cords are processed for histopathological analysis (performed by a blinded for the treatment arm, neuropathologist). This includes the evaluation of the number of inflammatory infiltrates and the number of cells per infiltrate, the degree of demyelination and of axonal damage. Another EAE model for MS which can be used for the compounds of the present invention and for identifying additional Myd88 inhibitors is described in Prinz et al 2006, J Clin Investigation, 116, 2 456-464, and Cohen et al 2010, J Immunol 184(1):212-21). In this model, C57B1 mice are immunized with MOG35-55 peptide ([…], SEQ ID NO: 4) emulsified in complete Freund's adjuvant (CFA) and pertussis toxin is administered systemically at the time of immunization and 48 h later. Mice are treated with the Myd88 inhibitor systemically and the mice are followed for development of ascending paralysis which typically begins on day 8-10 following immunization.
The effect of MIP administration on the clinical outcome of MOG35-55/CFA induced EAE was tested. […]
Following bioactivity characterization in vitro, the lead compound was evaluated for efficacy using the in vivo murine MOG35-55-induced EAE model of multiple sclerosis. […]

NFkB activation = test: NFkB-luciferase reporter in RAW 264.7 macrophages stimulated with LPS; type: cell-based, mouse; details: RAW 264.7 NFkB-luc, 4 hours
Protocol: FIG. 13. 4×4MyDI and Myr4×4MyDI block NFkB induction in response to LPS stimulation of RAW 264.7 NFkB-luc cells. RAW 264.7 murine macrophages were transfected with an NFkB-luciferase reporter gene and stimulated with LPS in the absence or presence of increasing concentrations of the inhibitors. After 4 hours cells were lysed and luminescence was recorded using a Tecan plate reader. BG denotes background.
In this assay the mouse macrophage RAW264.7 cell line is transfected with an NFkB-luciferase reporter construct and then cells are stimulated by exposure to bacterial LPS and light emission is measured after addition of luciferase substrate.

Protocol for CaCO-2 monolayer: Transport studies are performed through the CaCO-2 monolayer (passage range of 52-60) seeded at density of 25×10^5 cells/cm^2 on untreated culture inserts of polycarbonate membrane with 0.4 μm pores and surface of 1.1 cm^2. The culture inserets containing Caco-2 monolayers were place in 24 transwell plates 12 mm, Costar™. The cells were monitored for their transepithelial electrical resistance (TEER) measurements to assure TEER between 300 and 500 Ω*cm^2. […] HBSS supplemented with 10 mM MES and adjusted to pH 6.5 will be used as transport medium in the donor compartment and pH 7.4 in the acceptor compartment. The donor solution contains the test compound.
The investigation of the permeability of 4×4MyDI through CaCO-2 monolayer includes using two main control groups, Atenolol and Metoprolol that show passive para-cellular and trans-cellular permeability, respectively. The CaCO-2 model allows investigating the mechanism of absorption, so the permeability from apical to basolateral membranes (AB) can be measured to evaluate the total permeability. The permeability from basolateral to apical membranes (BA) can also be measured and compared to AB P apparent (Papp) to determine if the absorption is though passive diffusion, active transporters or if there is involvement of efflux systems.

In the case of `CC(C)C[C@@H]1NC(=O)[C@H](C(C)C)NC(=O)[C@H](CC(=O)O)NC(=O)[C@H](CCCNC(=N)N)NC(=O)CN(C(=O)[C@@H](N)Cc2c[nH]c3ccccc23)CCCCNC(=O)NCCCCN(CC(=O)NCC(=O)N[C@H](C(N)=O)[C@@H](C)O)C1=O` [4×4MyDI] (H-W[Nlys]RDVL[Nlys]GT-NH2; linker 2-7 via CO; N-terminus assumed), the “inhibition of TNFα production” value [1] is reported as “outperformed the 6-carbon bridge peptide”, the “MyD88 inhibitory activity (reduction in TNFα production)” value [2] is reported as “intermediate activity” and the “Papp AB (apical to basolateral)” value (CaCO-2 monolayer) is reported as “higher than metoprolol”. For the same compound, the EAE disease severity (MOG35-55/CFA induced EAE; 4 mg/Kg i.p. three times a week from day 0) was “significant reduction in disease severity; also recorded: significantly reduced disease severity”, the EAE disease severity (MOG35-55/CFA induced EAE; 4 mg/Kg i.p. three times a week from day 7) was “behaved similarly to the control group” and the EAE disease severity (MOG35-55/CFA induced EAE; 40 mg/Kg on day zero and day three only) was “reduced disease severity even further”. For the same compound, the survival (MOG35-55/CFA induced EAE; 4×4MyDI from day 0, three times a week, vs PBS) was “better rate of survival” and the “block of NFkB activation” value (NFkB activation) was “block NFkB activation in a dose dependent manner”.
